Measured values taken from paper PMC2721690 (2009).

Columns and labels:
Experiment in all cases: ITC
[1] = tested on: GRA (GR C74U) (RNA, riboswitch) GGACAUAUAAUCGCGUGGAUAUGGCACGCAAGUUUCUACCGGGCACCGUAAAUGUCCGAUUAUGUCC; settings: 100 mM KCl, 10 mM MgCl2; for KD: apparent
[2] = tested on: GR(A21G/U75C) (RNA, riboswitch) GGACAUGUAAUCGCGUGGAUAUGGCACGCAAGUUUCUACCGGGCACCGUAAAUGUCCGACCAUGUCC; settings: 100 mM KCl, 10 mM MgCl2; 50 mM K-HEPES, pH 7.5, 30 °C; apparent
[3] = tested on: GR (xpt-pbuX guanine riboswitch) (RNA, riboswitch) GGACAUAUAAUCGCGUGGAUAUGGCACGCAAGUUUCUACCGGGCACCGUAAAUGUCCGACUAUGUCC; settings: 100 mM KCl, 10 mM MgCl2
[4] = tested on: GRA(A21G/U75C) (RNA, riboswitch) GGACAUGUAAUCGCGUGGAUAUGGCACGCAAGUUUCUACCGGGCACCGUAAAUGUCCGAUCAUGUCC; settings: 100 mM KCl, 10 mM MgCl2; 50 mM K-HEPES, pH 7.5, 30 °C; apparent
[5] = tested on: GRA(A21U/U75A) (RNA, riboswitch) GGACAUUUAAUCGCGUGGAUAUGGCACGCAAGUUUCUACCGGGCACCGUAAAUGUCCGAUAAUGUCC; settings: 100 mM KCl, 10 mM MgCl2; 50 mM K-HEPES, pH 7.5, 30 °C; apparent
[6] = tested on: GR(A21U/U75A) (RNA, riboswitch) GGACAUUUAAUCGCGUGGAUAUGGCACGCAAGUUUCUACCGGGCACCGUAAAUGUCCGACAAUGUCC; settings: 100 mM KCl, 10 mM MgCl2; 50 mM K-HEPES, pH 7.5, 30 °C; apparent
[7] = 50 mM K-HEPES, pH 7.5, 30 °C, apparent
[8] = data not shown, text says "GR or GRA"
[9] = 50 mM K-HEPES, pH 7.5, 30 °C, no detectable binding

Molecule Nc1nc(F)nc2[nH]cnc12 has a KD ([1]; 50 mM K-HEPES, pH 7.5, 30 °C) of 4.0 ± 1.1 µM.

Nc1nc(Cl)c2[nH]cnc2n1 showed a KD ([1]; 50 mM K-HEPES, pH 7.5, 30 °C) of 0.72 ± 0.04 µM, a KD [2] of 24 ± 6.0 µM and a KD [3, 7] of 0.89 ± 0.06 µM.

For CSc1nc(N)nc2[nH]cnc12, the binding [3, 8] was “no”.

With Nc1nc(=S)c2[nH]cnc2[nH]1 the KD [3, 7] was 0.073 µM.

Work on Nc1ncnc2[nH]cnc12 yielded a KD ([1]; 50 mM K-HEPES, pH 7.5, 30 °C) of 0.47 ± 0.04 µM, a KD [4] of 6.0 ± 1.1 µM and a KD [5] of 2.1 ± 0.19 µM. For the same molecule, the binding [3, 9] was “no”.

Nc1nc(N)c2[nH]cnc2n1 showed a KD [2] of 13 ± 1.1 µM and a KD [3, 7] of 4.1 ± 0.6 µM.

CNc1nc2[nH]cnc2c(=O)[nH]1 was tested, and the binding ([3]; 50 mM K-HEPES, pH 7.5, 30 °C, data not shown) was “no”.

O=c1[nH]c(=O)c2[nH]cnc2[nH]1 was tested, and the binding [1, 9] was “no”.

With Nc1ncc2[nH]cnc2n1 the KD [3, 7] was 4.4 ± 1.2 µM.

In the case of Nc1nc(OCc2ccccc2)c2[nH]cnc2n1, the binding [3, 8] is reported as “no”.

For Nc1nc(Br)c2[nH]cnc2n1, the KD ([1]; 50 mM K-HEPES, pH 7.5, 30 °C) was 2.7 ± 1.2 µM and the KD [3, 7] was 2.1 ± 0.6 µM.

For COc1nc(N)nc2[nH]cnc12, the KD ([1]; 50 mM K-HEPES, pH 7.5, 30 °C) was 20 ± 6 µM and the KD [3, 7] was 23 ± 6 µM.

Nc1nc2[nH]cnc2c(=O)[nH]1 was tested, and the binding [1, 9] was “no”.

For O=c1[nH]cnc2nc[nH]c12, the binding [1, 9] was “no”, the KD [2] was 9.5 ± 0.22 µM and the binding ([3]; pH 7.5 to 6.0, no change, apparent) was “yes”. The KD [6] was 3.3 ± 0.32 µM.

c1coc(CNc2ncnc3[nH]cnc23)c1 was tested, and the binding [1, 8] was “no”.
